Assays:
[1] = Relative crystallographic stability of the crystal forms; type: physicochemical; conditions: comparison of crystal forms A, B and C
[2] = Transition of crystal form B into crystal form A in a heated acetone/water slurry, followed by IR spectrum; type: physicochemical; conditions: suspended in acetone (51.2 g) and water (17.1 g), stirred while heating at 40° C.
Procedure: Crystal form B of 3-(2,4-dichlorobenzyl)-2-methyl-N-(pentylsulfonyl)-3H-benzimidazole-5-carboxamide (5.0 g) was suspended in a mixed solvent consisting of acetone (51.2 g) and water (17.1 g), and the resulting slurry was stirred while heating at 40° C. About 4 hours later, crystals in the slurry completely transitioned into those with the IR spectrum that agreed with the spectrum of crystal form A of 3-(2,4-dichlorobenzyl)-2-methyl-N-(pentylsulfonyl)-3H-benzimidazole-5-carboxamide.

SMILES	crystallographic stability relative to the other crystal forms ([1]; listed as crystal form A)	time until crystals in the slurry completely transitioned into crystal form A [2]	crystallographic stability relative to the other crystal forms ([1]; listed as crystal form B)
CCCCCS(=O)(=O)NC(=O)c1ccc2nc(C)n(Cc3ccc(Cl)cc3Cl)c2c1 [Crystal form A, 3-(2,4-dichlorobenzyl)-2-methyl-N-(pentylsulfonyl)-3H-benzimidazole-5-carboxamide]	crystallographically more stable than crystal form B and C		
CCCCCS(=O)(=O)NC(=O)c1ccc2nc(C)n(Cc3ccc(Cl)cc3Cl)c2c1 [Crystal form B, 3-(2,4-dichlorobenzyl)-2-methyl-N-(pentylsulfonyl)-3H-benzimidazole-5-carboxamide]		About 4 hours	not as crystallographically stable as crystal form A

From patent publication US6703410B1, “Crystal forms of 3-(2,4-dichlorobenzyl)-2-methyl-n-(pentylsulfonyl)-3h-benzimidazole-5-carboxamide” (Fujisawa Pharmaceutical Co., Ltd., priority 1998, dated 2004)
